The test system of data set [1] is rat. The note with it: Subchronic oral toxicity in rodents, fischer, Gavage/Intubation, dose end: 13 week, group: systemic.
Data set [2] has as its system mouse. The following applies: Subchronic oral toxicity in rodents, b6c3f1, Gavage/Intubation, dose end: 13 week, group: systemic.
Data set [3] deals with mouse. The following applies: Chronic toxicity; b6c3f1; Oral; Gavage/Intubation; dose end: 2 year; group: systemic; systemic / pathology microscopic / kidney / necrosis + systemic / pathology microscopic / kidney / regeneration + systemic / pathology ….
The subject of data set [4] is rat. The note with it: Chronic toxicity, fischer, Oral, Gavage/Intubation, dose end: 2 year, group: systemic.
Data set [5] relates to rat. The following applies: Sub-acute dermal toxicity, sprague dawley, Topical, dose end: 2 week, group: systemic, systemic / in life observation / body weight / body weight gain + systemic / in life observation / food consumption / food consumption.
Data set [6] has as its system rat. The note with it: Subchronic dermal toxicity, sprague dawley, Topical, dose end: 91 day, group: systemic, systemic / in life observation / clinical signs / skin ulceration.
In data set [7] the test system is rat. The note with it: Subchronic oral toxicity in rodents, fischer, Water, dose end: 13 week, group: systemic.
Data set [8] has as its system rat. The note with it: Sub-acute repeat dose toxicity, fischer, Oral, Water, dose end: 14 day, group: systemic.
Data set [9] deals with rat. The following applies: Carcinogenicity; fischer; Oral; Water; dose end: 103 week; group: systemic; systemic / pathology microscopic / liver / neoplastic nodule + systemic / pathology microscopic / liver / cellular alteration + systemic / ….
The subject of data set [10] is mouse. The following applies: Sub-acute repeat dose toxicity, b6c3f1, Oral, Water, dose end: 14 day, group: systemic.
The subject of data set [11] is mouse. The following applies: Carcinogenicity, b6c3f1, Oral, Water, dose end: 103 week, group: systemic.
The subject of data set [12] is mouse. The note with it: Subchronic oral toxicity in rodents, b6c3f1, Water, dose end: 13 week, group: systemic.
Data set [13] has as its system rabbit. The note with it: Prenatal developmental toxicity study, new zealand white, Oral, Gavage/Intubation, dose end: 18 GD.
For data set [14], the system named is rabbit. The note with it: Prenatal developmental toxicity study, new zealand white, Oral, Gavage/Intubation, dose end: 18 GD. This is another data set of the same source.
Data set [15] relates to dog. The note with it: Chronic toxicity, beagle, Oral, Gavage/Intubation, dose end: 6 month, group: systemic.
For data set [16], the system named is rat. The note with it: Sub-acute repeat dose toxicity, sprague dawley, Oral, Gavage/Intubation, dose end: 4 week, group: systemic.
Data set [17] deals with dog. The following applies: Sub-acute repeat dose toxicity; beagle; Oral; Gavage/Intubation; dose end: 4 week; group: systemic; systemic / in life observation / body weight / body weight gain + systemic / in life observation / clinical signs / abnormal feces + ….
Data set [18] deals with mouse. The following applies: Subchronic oral toxicity in rodents, cd1, Gavage/Intubation, dose end: 3 month, group: systemic.
Data set [19] relates to rat. The following applies: Fertility (Segment I), sprague dawley, Oral, Gavage/Intubation, dose end: 7 GD, group: parental.
The test system of data set [20] is rat. The following applies: Prenatal developmental toxicity study; sprague dawley; Oral; Gavage/Intubation; dose end: 17 GD; group: maternal; systemic / in life observation / body weight / body weight gain.
Data set [21] concerns rat. The following applies: Chronic toxicity, sprague dawley, Oral, Gavage/Intubation, dose end: 6 month, group: systemic.
Data set [22] has as its system rat. The following applies: Prenatal developmental toxicity study; sprague dawley; Oral; Gavage/Intubation; dose end: 17 GD; group: maternal; systemic / in life observation / body weight / body weight + systemic / in life observation / food consumption / food consumption.
The mark [23] stands for this setting: systemic / pathology microscopic / intestine small / pigmentation + systemic / pathology microscopic / stomach / acanthosis + systemic / ….
[24] abbreviates: systemic / organ weight / kidney / absolute + systemic / organ weight / kidney / relative to body weight + systemic / organ weight / liver….
Where [25] appears, read: systemic / in life observation / body weight / body weight + systemic / pathology microscopic / kidney / hyperplasia + systemic / pathology ….
The mark [26] stands for this setting: systemic / pathology microscopic / intestine small / pigmentation + systemic / pathology microscopic / kidney / hemosiderosis + systemic / ….
The mark [27] stands for this setting: systemic / in life observation / body weight / body weight + systemic / in life observation / water consumption / water consumption + ….
[28] abbreviates: systemic / in life observation / water consumption / water consumption.
Where [29] appears, read: systemic / in life observation / body weight / body weight + systemic / in life observation / body weight / body weight gain + systemic / in….
Setting [30] is: systemic / in life observation / body weight / body weight gain + systemic / in life observation / water consumption / water consumption + ….
Where [31] appears, read: systemic / pathology microscopic / kidney / nephropathy.
[32] abbreviates: systemic / pathology microscopic / kidney / nephropathy + systemic / pathology microscopic / blood / lymphoma nos.
Setting [33] is: systemic / in life observation / body weight / body weight + systemic / pathology microscopic / liver / hyperplasia + systemic / pathology ….
Where [34] appears, read: group: developmental, developmental / developmental malformation / bone / incomplete ossification + systemic / in life observation / body weight / fetal weight.
[35] abbreviates: group: maternal, systemic / in life observation / body weight / body weight + systemic / in life observation / body weight / body weight gain + systemic / in….
The mark [36] stands for this setting: group: developmental, systemic / in life observation / body weight / fetal weight.
[37] abbreviates: group: maternal, systemic / in life observation / body weight / body weight gain + systemic / in life observation / food consumption / food consumption.
Setting [38] is: systemic / in life observation / clinical signs / emesis + systemic / in life observation / clinical signs / salivation.
[39] abbreviates: systemic / clinical chemistry / triglycerides / triglycerides + systemic / in life observation / body weight / body weight gain + systemic….
Where [40] appears, read: systemic / in life observation / body weight / body weight gain + systemic / in life observation / clinical signs / abnormal respiratory ….
Where [41] appears, read: systemic / clinical chemistry / alanine aminotransferase (alt/sgpt) / alanine aminotransferase (alt/sgpt) + systemic / clinical chemistry / ….
Where [42] appears, read: systemic / in life observation / clinical signs / abnormal feces + systemic / in life observation / clinical signs / body surface staining….
Where [43] appears, read: systemic / in life observation / body weight / body weight gain + systemic / in life observation / clinical signs / anogenital staining + ….
The mark [44] stands for this setting: systemic / in life observation / body weight / body weight gain + systemic / in life observation / clinical signs / red or crusty deposits ….
The mark [45] stands for this setting: systemic / in life observation / body weight / body weight gain + systemic / in life observation / clinical signs / [other] + systemic / in ….

Each structure is given as a SMILES string.

A word on the LOAEL: it is the lowest tested level that showed an adverse finding. One may read the NOAEL as the highest tested level that showed no adverse finding. `Cl.Cl.Nc1ccc(O)c(N)c1` [2,4-Diaminophenol dihydrochloride]: the LOAEL with rat [1] (systemic / organ weight / kidney / relative to body weight + systemic / pathology microscopic / kidney / necrosis) was 25 mg/kg/day; in the data set on mouse [2] (systemic / pathology microscopic / kidney / regeneration), 38 mg/kg/day; in the data set on mouse [3], 19 mg/kg/day; with rat [4] (setting [25]) it was 25 mg/kg/day. The no observed adverse effect level (NOAEL) in the data set with rat [1] (systemic / organ weight / kidney / relative to body weight + systemic / pathology microscopic / kidney / necrosis + systemic / in life …) was 12 mg/kg/day; in the data set with mouse [2] (setting [24]) it was 19 mg/kg/day; in the data set with mouse [3], less than 19 mg/kg/day; in the data set with rat [4] (setting [25]) it was 12.5 mg/kg/day. Further, the LEL in the data set with rat [1] (setting [23]) is 12 mg/kg/day; in the data set on mouse [2] (setting [24]), 5 mg/kg/day; with mouse [3] it was 19 mg/kg/day; with rat [4] (setting [26]), 12.5 mg/kg/day. Also, the NEL is less than 12 mg/kg/day with rat [1] (setting [23]), less than 5 mg/kg/day in the data set on mouse [2] (setting [24]), less than 19 mg/kg/day in the data set with mouse [3] and less than 12.5 mg/kg/day with rat [4] (setting [26]).
Consider `CC(O)CSS(C)(=O)=O` (stereo unspecified) [2-Hydroxypropyl methanethiosulfonate], for which, in the data set with rat [5], the LEL came to 100 mg/kg/day, the LOAEL came out at 100 mg/kg/day, the NEL was less than 100 mg/kg/day and the NOAEL was less than 100 mg/kg/day. In the data set on rat [6], this compound had an LEL of 10 mg/kg/day, an LOAEL of 10 mg/kg/day, an NEL of less than 10 mg/kg/day and an NOAEL of less than 10 mg/kg/day.
As for `Cl.Cl.Nc1ccc(Cc2ccc(N)cc2)cc1` [4,4'-Methylenedianiline dihydrochloride], the LOAEL with rat [7] (setting [27]) is 20 mg/kg/day; in the data set with rat [8] (setting [29]) it was 40 mg/kg/day; in the data set on rat [9], 9 mg/kg/day; in the data set with mouse [10] (systemic / in life observation / body weight / body weight gain + systemic / in life observation / water consumption / water consumption), 120 mg/kg/day; in the data set on mouse [11] (setting [31]), 19 mg/kg/day; with mouse [12] (setting [33]), 60 mg/kg/day. Moreover, the NEL is 5 mg/kg/day with rat [7] (setting [27]); less than 10 mg/kg/day in the data set on rat [8] (setting [28]); less than 9 mg/kg/day in the data set on rat [9]; 60 mg/kg/day in the data set on mouse [10] (setting [30]); less than 19 mg/kg/day with mouse [11] (setting [32]); less than 3.75 mg/kg/day in the data set on mouse [12] (setting [28]). Besides, the NOAEL in the data set with rat [7] (setting [27]) was 10 mg/kg/day; with rat [8] (setting [29]), 20 mg/kg/day; in the data set with rat [9], less than 9 mg/kg/day; in the data set with mouse [10] (setting [30]), 60 mg/kg/day; in the data set with mouse [11] (setting [31]), less than 19 mg/kg/day; in the data set with mouse [12] (setting [33]), 30 mg/kg/day. Also, the LEL with rat [7] (setting [28]) turned out to be 10 mg/kg/day; in the data set with rat [8] (setting [28]), 10 mg/kg/day; in the data set with rat [9], 9 mg/kg/day; in the data set with mouse [10] (setting [30]) it was 120 mg/kg/day; in the data set on mouse [11] (setting [32]), 19 mg/kg/day; with mouse [12] (setting [28]), 3.75 mg/kg/day.
Regarding `CN1CCN(Cc2cc(-c3ccc4[nH]c(=O)oc4c3)co2)[C@@H](c2ccc(F)cc2)C1.Cl.O` [AVE8488], the LEL was found to be 150 mg/kg/day with rabbit [13] (setting [34]); 150 mg/kg/day with rabbit [13] (setting [35]); 100 mg/kg/day in the data set on rabbit [14] (setting [36]); 100 mg/kg/day in the data set on rabbit [14] (setting [37]); 1 mg/kg/day with dog [15] (setting [38]); 5 mg/kg/day with rat [16] (systemic / clinical chemistry / triglycerides / triglycerides + systemic / in life observation / body weight / body weight gain). Besides, the LEL is 20 mg/kg/day in the data set with dog [17]; 50 mg/kg/day in the data set with mouse [18] (setting [42]); 1 mg/kg/day in the data set with rat [19] (setting [44]); 3.7 mg/kg/day in the data set with rat [20]; 1 mg/kg/day with rat [21] (setting [45]); 10 mg/kg/day in the data set with rat [22]. Besides, the LOAEL in the data set with rabbit [13] (setting [34]) came to 150 mg/kg/day; in the data set with rabbit [13] (setting [35]), 150 mg/kg/day; with rabbit [14] (setting [36]), 100 mg/kg/day; in the data set on rabbit [14] (setting [37]) it was 100 mg/kg/day; in the data set on dog [15] (systemic / in life observation / clinical signs / emesis + systemic / in life observation / clinical signs / salivation + systemic / …), 20 mg/kg/day; in the data set on rat [16] (setting [40]), 50 mg/kg/day. Further, the LOAEL with dog [17] is 20 mg/kg/day; in the data set with mouse [18] (setting [41]), greater than 2000 mg/kg/day; in the data set on rat [19] (setting [43]) it was greater than 150 mg/kg/day; in the data set on rat [20] it was 25 mg/kg/day; with rat [21] (setting [39]), 7 mg/kg/day; in the data set on rat [22] it was 10 mg/kg/day. Further, the NEL was 50 mg/kg/day in the data set on rabbit [13] (setting [34]); 50 mg/kg/day in the data set on rabbit [13] (setting [35]); 50 mg/kg/day in the data set on rabbit [14] (setting [36]); 50 mg/kg/day in the data set with rabbit [14] (setting [37]); less than 1 mg/kg/day with dog [15] (setting [38]); 0.25 mg/kg/day in the data set with rat [16] (setting [39]). Also, the NEL in the data set with dog [17] is 5 mg/kg/day; in the data set with mouse [18] (setting [42]) it was less than 50 mg/kg/day; in the data set with rat [19] (setting [44]) it was less than 1 mg/kg/day; in the data set with rat [20] it was 0.79 mg/kg/day; with rat [21] (setting [45]), less than 1 mg/kg/day; in the data set with rat [22], 1 mg/kg/day. In addition, the NOAEL in the data set with rabbit [13] (setting [34]) came to 50 mg/kg/day; with rabbit [13] (setting [35]) it was 50 mg/kg/day; with rabbit [14] (setting [36]) it was 50 mg/kg/day; in the data set with rabbit [14] (setting [37]), 50 mg/kg/day; in the data set on dog [15] (systemic / in life observation / clinical signs / emesis + systemic / clinical chemistry / albumin / albumin + systemic / clinical chemistry…), 5 mg/kg/day; in the data set on rat [16] (setting [40]), 5 mg/kg/day. Besides, the NOAEL in the data set with dog [17] was 5 mg/kg/day; in the data set on mouse [18] (setting [41]), no less than 2000 mg/kg/day; in the data set with rat [19] (setting [43]) it was no less than 150 mg/kg/day; in the data set on rat [20], 3.7 mg/kg/day; in the data set with rat [21] (setting [39]) it was 1 mg/kg/day; in the data set with rat [22], 1 mg/kg/day.

The values are drawn from EPA's ToxRefDB 2.
